{
  "source": "patent US20250288584A1",
  "about": "“COMBINATIONS COMPRISING POSITIVE ALLOSTERIC MODULATORS OR ORTHOSTERIC AGONISTS OF METABOTROPIC GLUTAMATERGIC RECEPTOR SUBTYPE 2 AND THEIR USE” (JANSSEN PHARMACEUTICA NV, priority 2014, published 2025)",
  "key": {"[1]": {"test_system": "6 Hz (32 mA) psychomotor seizures", "test": "6 Hz psychomotor seizure test, 32 mA (incl. TPE determination)", "assay_type": "in vivo, mice", "settings": "for # protected/# tested: 0.5 h", "procedure": "Test compounds were administered using an optimal fluid volume to body fluid ratio. Test compounds were administered to mice in a volume of 0.01 mL/g of body weight (White H. S., et al., General Principles: Experimental selection, quantification, and evaluation of antiepileptic drugs, in Antiepileptic Drugs, Fourth Edition, […], and B. S. Meldrum, Editors. 1995, Raven Press, Ltd.: New York, pp. 99-110). For subcutaneous (s.c.) administration, the test compounds were administered into a loose fold of skin along the back of the animal except compound 6-b, which was administered orally (p.o). […] The animals were maintained on an adequate diet (Prolab RMH 3000) and allowed free access to food and water, except during the short time they were removed from their cage for testing. Animals newly received in the laboratory were allowed sufficient time to correct for possible food and water restriction incurred during transit before being employed in testing. All mice were housed in plastic cages in specially constructed rooms with controlled humidity, exchange of air and controlled lighting (12 hours on-12 hours off). The animals were housed, fed, and handled in a manner consistent with the recommendations in the National Council Publication, “Guide for the Care and Use of Laboratory Animals”. In the determination of an ED50 or TD50 for each test compound, the first dose administered is usually the same dose as that used in a successful TPE determination. […] Third and fourth doses were selected to produce an evenly spaced dose response line. […] TPE was determined using the 6 Hz (32 mA) assay. […] The 6 Hz seizure test is used as a model of pharmacoresistant limbic seizures. […] Focal seizures were induced in mice via corneal stimulation (6 Hz, 0.2 msec rectangular pulse, 3 sec duration; Barton et al. 2001). Mice were tested at either 32 mA or 44 mA. […] The seizures that arise from corneal stimulation in this assay are characterized by a minimal clonic phase followed by stereotyped automatistic behaviors including stun, forelimb clonus, twitching of the vibrissae, and Straub-tail. Animals not displaying these behaviors were considered protected."}, "[2]": {"test_system": "6 Hz (44 mA) psychomotor seizures", "test": "6 Hz psychomotor seizure test, 44 mA (alone, combination with LEV, isobolographic study)", "assay_type": "in vivo, mice", "outline": "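Mice dosed s.c. or p.o. at 0.01 mL/g, alone or with LEV at fixed dose ratios proportional to ED50 values. Focal seizures induced by corneal stimulation (6 Hz, 0.2 msec pulse, 3 sec, 44 mA); animals without stun, forelimb clonus, vibrissae twitch or Straub-tail were counted as protected. ED50 values derived, with combinations analysed isobolographically.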"}, "[3]": {"test": "Minimal motor impairment (rotarod)", "assay_type": "in vivo, mice", "settings": "for # rotarod motor impairment/# tested: 0.5 h", "procedure": "Acute MMI was assessed by a combination of direct observations of the animal for overt symptoms of the animal's neurological or muscular function. In mice, the rotarod procedure was used to disclose minimal muscular or neurological impairment. When a mouse is placed on a rod that rotates at a speed of 6 rpm, the animal can maintain its equilibrium for long periods of time. The animal was considered toxic if it fell off this rotating rod three times during a 1 min period.\nIn the determination of an ED50 or TD50 for each test compound, the first dose administered is usually the same dose as that used in a successful TPE determination.\nIf the initial dose employed was effective or toxic in more than 50% of animals, the next dose would be one-half that of the initial dose; if the initial dose was effective or toxic in less than 50% of animals, the following dose would be twice that of the initial dose. Third and fourth doses were selected to produce an evenly spaced dose response line. There should be a minimum of 4 points either including or lying between 0 and 100%."}, "[4]": {"test_system": "corneal kindled seizures", "test": "Mouse corneal kindling model", "assay_type": "in vivo, mice", "settings": "100 mg/kg s.c.; Racine score 0-5", "procedure": "After the mice reached a stable kindled state, the test compound or vehicle was administered and, at the previously determined TPE, each animal was given the electrical stimulus indicated above. […] One dose of LEV and two doses of Co."}, "[5]": {"target": "mGlu1a (Homo sapiens, UniProt Q13255)", "sequence (Q13255 19-1194)": "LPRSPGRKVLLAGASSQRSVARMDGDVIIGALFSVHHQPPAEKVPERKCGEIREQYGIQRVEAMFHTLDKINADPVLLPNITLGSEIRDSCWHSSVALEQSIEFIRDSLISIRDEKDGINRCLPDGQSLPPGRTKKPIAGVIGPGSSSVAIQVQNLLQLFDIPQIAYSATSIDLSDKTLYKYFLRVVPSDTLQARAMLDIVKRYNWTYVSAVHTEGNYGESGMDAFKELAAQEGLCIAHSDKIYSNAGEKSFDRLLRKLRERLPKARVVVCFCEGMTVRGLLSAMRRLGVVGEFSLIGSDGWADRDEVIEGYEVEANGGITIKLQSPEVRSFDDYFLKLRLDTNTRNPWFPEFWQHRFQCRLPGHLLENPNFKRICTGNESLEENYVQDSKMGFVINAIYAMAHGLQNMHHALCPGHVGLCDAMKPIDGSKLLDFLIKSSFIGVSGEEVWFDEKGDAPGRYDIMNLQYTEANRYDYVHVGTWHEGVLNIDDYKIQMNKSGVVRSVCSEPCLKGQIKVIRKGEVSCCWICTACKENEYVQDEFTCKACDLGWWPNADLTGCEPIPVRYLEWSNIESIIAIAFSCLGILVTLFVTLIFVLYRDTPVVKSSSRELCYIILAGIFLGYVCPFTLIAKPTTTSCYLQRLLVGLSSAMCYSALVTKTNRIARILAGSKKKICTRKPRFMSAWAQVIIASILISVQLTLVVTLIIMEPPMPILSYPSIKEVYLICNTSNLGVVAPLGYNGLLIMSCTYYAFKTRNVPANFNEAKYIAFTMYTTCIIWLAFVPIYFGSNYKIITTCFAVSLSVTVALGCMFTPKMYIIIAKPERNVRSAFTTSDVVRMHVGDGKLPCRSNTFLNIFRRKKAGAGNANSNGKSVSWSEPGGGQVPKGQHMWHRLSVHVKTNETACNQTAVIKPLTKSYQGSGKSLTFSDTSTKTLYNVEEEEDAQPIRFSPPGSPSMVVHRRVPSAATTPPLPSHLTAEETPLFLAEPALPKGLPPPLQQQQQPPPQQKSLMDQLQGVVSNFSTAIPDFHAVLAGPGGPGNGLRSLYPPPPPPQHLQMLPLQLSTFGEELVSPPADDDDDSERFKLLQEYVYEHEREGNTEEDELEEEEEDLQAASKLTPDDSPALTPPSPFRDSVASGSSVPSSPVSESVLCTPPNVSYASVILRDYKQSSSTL", "settings": "cited from earlier work"}, "[6]": {"target": "mGlu5a (Homo sapiens, UniProt P41594)", "sequence (P41594 21-1180 isoform P41594-2)": "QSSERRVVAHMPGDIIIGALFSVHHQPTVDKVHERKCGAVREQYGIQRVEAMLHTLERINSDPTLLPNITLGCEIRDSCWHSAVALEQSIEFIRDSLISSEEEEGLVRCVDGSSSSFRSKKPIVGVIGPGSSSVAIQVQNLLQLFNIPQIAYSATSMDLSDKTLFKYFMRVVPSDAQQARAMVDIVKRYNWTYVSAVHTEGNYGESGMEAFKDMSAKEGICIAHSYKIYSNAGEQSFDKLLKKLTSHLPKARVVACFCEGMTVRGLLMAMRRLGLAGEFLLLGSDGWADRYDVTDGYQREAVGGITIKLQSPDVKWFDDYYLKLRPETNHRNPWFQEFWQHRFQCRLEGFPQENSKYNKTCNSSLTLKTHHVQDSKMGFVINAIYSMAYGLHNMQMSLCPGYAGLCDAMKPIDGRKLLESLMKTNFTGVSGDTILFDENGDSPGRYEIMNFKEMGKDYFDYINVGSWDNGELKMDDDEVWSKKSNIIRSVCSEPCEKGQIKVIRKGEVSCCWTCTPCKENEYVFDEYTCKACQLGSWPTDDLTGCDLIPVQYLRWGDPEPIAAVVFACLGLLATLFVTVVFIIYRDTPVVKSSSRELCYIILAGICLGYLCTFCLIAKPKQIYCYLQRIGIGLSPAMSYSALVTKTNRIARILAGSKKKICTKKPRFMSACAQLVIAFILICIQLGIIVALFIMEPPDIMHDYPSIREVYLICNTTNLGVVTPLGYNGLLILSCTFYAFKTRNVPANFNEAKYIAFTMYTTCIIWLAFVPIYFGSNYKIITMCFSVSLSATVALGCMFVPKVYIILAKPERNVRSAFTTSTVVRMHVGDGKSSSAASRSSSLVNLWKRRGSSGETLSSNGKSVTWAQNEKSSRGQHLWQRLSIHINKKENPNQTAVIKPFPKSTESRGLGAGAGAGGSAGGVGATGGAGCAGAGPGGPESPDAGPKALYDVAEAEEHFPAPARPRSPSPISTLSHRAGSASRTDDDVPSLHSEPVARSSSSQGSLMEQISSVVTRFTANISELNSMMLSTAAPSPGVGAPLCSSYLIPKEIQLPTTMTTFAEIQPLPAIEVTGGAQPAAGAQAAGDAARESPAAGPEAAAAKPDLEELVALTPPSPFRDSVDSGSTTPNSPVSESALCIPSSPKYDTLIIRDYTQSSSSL", "settings": "cited from earlier work"}},
  "data": [
    {"smiles": "N[C@@]1(C(=O)O)CS(=O)(=O)[C@H]2[C@H](C(=O)O)[C@H]21", "note": "[LY-404039, reference compound]", "values": [
      {"measurement": "# protected/# tested", "setting": "[1]; 5 mg/kg s.c.", "value": "1/16"},
      {"measurement": "# protected/# tested", "setting": "[1]; 10 mg/kg s.c.", "value": "5/8"},
      {"measurement": "# protected/# tested", "setting": "[1]; 20 mg/kg s.c.", "value": "6/8"},
      {"measurement": "# protected/# tested", "setting": "[1]; 40 mg/kg s.c.", "value": "8/8"},
      {"measurement": "ED50", "setting": "[1]; Mus musculus, sc, at TPE, read-out: ED50 (95% CI) 32 mA", "value": 10.2, "unit": "mg/kg"},
      {"measurement": "activity in the 6 Hz 32 mA test", "setting": "[1]; result in words", "value": "activity in both 6 Hz tests was seen"},
      {"measurement": "ED50 (95% CI) 32 mA", "setting": "[1]; s.c., at TPE", "value": "ED50 (95% CI): 10.9 mg/kg (7.8 to 15.9)"},
      {"measurement": "activity when administered alone", "setting": "[2]; 5 mg/kg s.c.", "value": "^bLY404039 (s.c.) 5 mg/kg tested in combination with LEV (i.p.); LY404039 5 mg/kg was not active when administered alone."},
      {"measurement": "responders at 5 mg/kg", "setting": "[2]; Mus musculus, sc, 0.5 h, 5 mg/kg s.c., 0.5 h, read-out: # protected/# tested", "value": 0, "unit": "%"},
      {"measurement": "responders at 10 mg/kg", "setting": "[2]; Mus musculus, sc, 0.5 h, 10 mg/kg s.c., 0.5 h, read-out: # protected/# tested (converted)", "value": 37.5, "unit": "%"},
      {"measurement": "responders at 20 mg/kg", "setting": "[2]; Mus musculus, sc, 0.5 h, 20 mg/kg s.c., 0.5 h, read-out: # protected/# tested (converted)", "value": 87.5, "unit": "%"},
      {"measurement": "responders at 40 mg/kg", "setting": "[2]; Mus musculus, sc, 0.5 h, 40 mg/kg s.c., 0.5 h, read-out: # protected/# tested (converted)", "value": 87.5, "unit": "%"},
      {"measurement": "ED50", "setting": "[2]; Mus musculus, sc, at TPE, compound alone, read-out: ED50 (95% CI) 44 mA", "value": 14.1, "unit": "mg/kg"},
      {"measurement": "activity in the 6 Hz 44 mA test", "setting": "[2]; result in words", "value": "activity in both 6 Hz tests was seen"},
      {"measurement": "pharmacodynamic interaction with LEV in the 6 Hz model", "setting": "[2]; result in words", "value": "synergy was seen"},
      {"measurement": "# rotarod motor impairment/# tested", "setting": "[3]; 5 mg/kg s.c., 32 mA group", "value": "1/16"},
      {"measurement": "# rotarod motor impairment/# tested", "setting": "[3]; 5 mg/kg s.c., 44 mA group", "value": "0/16"},
      {"measurement": "# rotarod motor impairment/# tested", "setting": "[3]; 10 mg/kg s.c., 32 mA group", "value": "0/8"},
      {"measurement": "# rotarod motor impairment/# tested", "setting": "[3]; 10 mg/kg s.c., 44 mA group", "value": "1/8"},
      {"measurement": "# rotarod motor impairment/# tested", "setting": "[3]; 20 mg/kg s.c., 32 mA group", "value": "1/8"},
      {"measurement": "# rotarod motor impairment/# tested", "setting": "[3]; 20 mg/kg s.c., 44 mA group", "value": "1/8"},
      {"measurement": "# rotarod motor impairment/# tested", "setting": "[3]; 40 mg/kg s.c., 32 mA group", "value": "1/8"},
      {"measurement": "# rotarod motor impairment/# tested", "setting": "[3]; 40 mg/kg s.c., 44 mA group", "value": "2/8"},
      {"measurement": "mice with impairment out of total", "setting": "[3]; 40 mg/kg s.c., 32 mA and 44 mA groups combined", "value": "^a40 mg/kg-3 out of 16 total (32 mA and 44 mA combined) with impairment."},
      {"measurement": "TD50 at 0.5 h", "setting": "[3]; mouse, in vivo, sc, rotarod", "value": "> 40", "unit": "mg/kg"},
      {"measurement": "Seizure score (dose) Corneal kindling", "setting": "[4]", "value": 3.1},
      {"measurement": "activity at mGlu1a", "setting": "[5]", "value": "no activity"},
      {"measurement": "activity at mGlu5a", "setting": "[6]", "value": "no activity"}
    ]}
  ]
}
